# Measured values as given in patent US5843887A, “Compositions for delivery of polypeptides, and methods” (Allied Medical Research Associates, priority 1994, dated 1998).
# Key:
# [1] = doses of 100 to 500 μg, as in pernicious anemia; cited from earlier work
# blood glucose level = test: oral administration of IF and/or porcine insulin to mice, blood glucose level; type: in vivo; conditions: administered orally (summary statement)
# Procedure: The IF was substantially free of R-protein and prepared as in Example 1. […] Blood glucose level was measured with a blood glucose meter standard model Tracer (Boehringer) and produced the following results.
# [2] = pH of 8, in the presence of trypsin; cited from earlier work
# serum glucose = test: IF and insulin injected into the sutured duodenal cavity of mice, serum glucose; type: in vivo; conditions: 50 mg IF and 4 I.U. insulin, decreases up until death, depending on the dose
# Procedure: 10 g IF (dosage of 300 Units per mg; one unit will bind one nanogram of vitamin B12) was added to 1 liter of 0.02M phosphate buffered solution and stirred up to 37° C. […] The solution (with a prefered pH of about 6) was stirred at a temperature of 37° C. for 24 hours. The product was then dialysed at 4° C. and dehydrated by lyophilization.
substance,measurement,setting,value
cyanocobalamin,fraction of dose absorbed (passive absorption),[1],1%
insulin,change in serum glucose after oral administration,blood glucose level,no change in serum glucose
"IF: glycoprotein with a molecular weight of 50 kDa, 351 amino acids, binds cobalamin",affinity for cobalamin relative to that of R protein,[2],150 times
"Insulin alone: human biogenetic insulin (Novo Nordisk) of Example 1, injected alone",change in serum glucose,serum glucose,did not cause a fall in serum glucose
